Results reported in patent publication US20130072430A1, “METHODS FOR TREATMENT OR PROPHYLAXIS OF KIDNEY OR LIVER DYSFUNCTION” (NPS PHARMACEUTICALS, INC., priority 2010, published 2013).

Test system: Human patients with short bowel syndrome
Assay: Example 2: liver biomarkers (albumin, gamma glutamyl transferase, total bilirubin, ALT, AST, ALP) in short bowel syndrome patients, every four weeks for 24 weeks
Assay type: in vivo
Method: To further confirm the results of Example 1, a further study was conducted involving more individuals and additional diagnostic biomarkers. Human patients with short bowel syndrome were divided into two groups: a control group (43 total individuals) to receive placebo, and an experimental group (42 total individuals) to receive teduglutide at 0.05 mg/kg/day throughout the study. Patients were treated by subcutaneous injection of placebo or the appropriate dose of teduglutide. Known biomarkers of liver function were monitored every four weeks, for 24 weeks. The liver biomarkers tested included albumin, gamma glutamyl transferase, total bilirubin, ALT and AST and ALP. Before administration of placebo or teduglutide, diagnostic biomarker levels were tested to establish a baseline for each individual.
To determine the effect of GLP-2 on the levels of the diagnostic biomarkers, the average level of each biomarker was measured for the placebo and teduglutide treated groups for each visit. Furthermore, the average change from baseline was calculated using the established baseline values. For FIGS. 17-28, p-values were calculated using the t-test.
P values are provided, which were calculated for each distribution of biomarker changes for each week using the chi-squared test.

[1] = Endpoint (last assessment after start of treatment), 0.05 mg/kg/d, n=42
[2] = Endpoint (last assessment), 0.05 mg/kg/d, m=42

CC[C@H](C)[C@H](NC(=O)[C@H](Cc1ccccc1)NC(=O)[C@H](CC(=O)O)NC(=O)[C@H](CCCNC(=N)N)NC(=O)[C@H](C)NC(=O)[C@H](C)NC(=O)[C@H](CC(C)C)NC(=O)[C@H](CC(N)=O)NC(=O)[C@H](CC(=O)O)NC(=O)[C@H](CC(C)C)NC(=O)[C@@H](NC(=O)[C@@H](NC(=O)[C@H](CC(N)=O)NC(=O)[C@H](CCSC)NC(=O)[C@H](CCC(=O)O)NC(=O)[C@H](CC(=O)O)NC(=O)[C@H](CO)NC(=O)[C@H](Cc1ccccc1)NC(=O)[C@H](CO)NC(=O)CNC(=O)[C@H](CC(=O)O)NC(=O)CNC(=O)[C@@H](N)Cc1c[nH]cn1)[C@@H](C)O)[C@@H](C)CC)C(=O)N[C@@H](CC(N)=O)C(=O)N[C@@H](Cc1c[nH]c2ccccc12)C(=O)N[C@@H](CC(C)C)C(=O)N[C@H](C(=O)N[C@@H](CCC(N)=O)C(=O)N[C@H](C(=O)N[C@@H](CCCCN)C(=O)N[C@H](C(=O)N[C@H](C(=O)N[C@@H](CC(=O)O)C(=O)O)[C@@H](C)O)[C@@H](C)CC)[C@@H](C)O)[C@@H](C)CC [teduglutide]
average level of diagnostic biomarkers elevated in liver dysfunction versus placebo cohort (0.05 mg/kg/day): lower level, on average | likelihood of a >10% decrease in liver biomarkers versus placebo (0.05 mg/kg/day): more likely | likelihood of a >10% increase in liver biomarkers versus placebo (0.05 mg/kg/day): less likely | measured level of albumin relative to placebo cohort (0.05 mg/kg/day, as treatment progressed): became elevated | ALKALINE PHOSPHATASE Change from Baseline, Median [1]: −22 U/L | ALT Change from Baseline, Mean [1]: −12.1 U/L | ALT Change from Baseline, Median [1]: −4 U/L | ALT Observed Value, Mean [1]: 31.0 U/L | ALT Observed Value, Median [1]: 23.5 U/L | AST Change from Baseline, Mean [1]: −5.4 U/L | AST Change from Baseline, Median [1]: −3 U/L | AST Observed Value, Mean [1]: 27.0 U/L | AST Observed Value, Median [1]: 24 U/L | Albumin Change from Baseline, Mean [1]: -0.5 g/L | Albumin Change from Baseline, Median [1]: 0 g/L | Albumin Observed Value, Mean [1]: 41.9 g/L | Albumin Observed Value, Median [1]: 42 g/L | Alkaline Phosphatase Change from Baseline, Mean [1]: −28.3 U/L | Alkaline Phosphatase Observed Value, Mean [1]: 106.4 U/L | Alkaline Phosphatase Observed Value, Median [1]: 90.5 U/L | Bilirubin Change from Baseline, Mean [1]: -3.33 µmol/L | Bilirubin Change from Baseline, Median [1]: -1.95 µmol/L | Bilirubin Observed Value, Mean [1]: 8.87 µmol/L | Bilirubin Observed Value, Median [1]: 6.95 µmol/L | Gamma Glutamyl Transferase Change from Baseline, Mean [1]: −12.8 U/L | Gamma Glutamyl Transferase Change from Baseline, Median [1]: −6 U/L | Gamma Glutamyl Transferase Observed Value, Mean [1]: 62.3 U/L | Gamma Glutamyl Transferase Observed Value, Median [1]: 42 U/L | ALT >10% decrease from Baseline, % of subjects [2]: (59.5%) | ALT >10% decrease from Baseline, n subjects [2]: 25 | ALT >10% increase from Baseline, % of subjects [2]: (11.9%) | ALT >10% increase from Baseline, n subjects [2]: 5 | ALT Within 10% of Baseline, % of subjects [2]: (28.6%) | ALT Within 10% of Baseline, n subjects [2]: 12 | AST >10% decrease from Baseline, % of subjects [2]: (59.5%) | AST >10% decrease from Baseline, n subjects [2]: 25 | AST >10% increase from Baseline, % of subjects [2]: (14.3%) | AST >10% increase from Baseline, n subjects [2]: 6 | AST Within 10% of Baseline, % of subjects [2]: (26.2%) | AST Within 10% of Baseline, n subjects [2]: 11 | Albumin >10% decrease from Baseline, % of subjects [2]: (4.8%) | Albumin >10% decrease from Baseline, n subjects [2]: 2 | Albumin >10% increase from Baseline, n subjects [2]: 0 | Albumin Within 10% of Baseline, % of subjects [2]: (95.2%) | Albumin Within 10% of Baseline, n subjects [2]: 40 | Alkaline Phosphatase >10% decrease from Baseline, % of subjects [2]: (57.1%) | Alkaline Phosphatase >10% decrease from Baseline, n subjects [2]: 24 | Alkaline Phosphatase >10% increase from Baseline, % of subjects [2]: (14.3%) | Alkaline Phosphatase >10% increase from Baseline, n subjects [2]: 6 | Alkaline Phosphatase Within 10% of Baseline, % of subjects [2]: (28.6%) | Alkaline Phosphatase Within 10% of Baseline, n subjects [2]: 12 | Bilirubin >10% decrease from Baseline, % of subjects [2]: (64.3%) | Bilirubin >10% decrease from Baseline, n subjects [2]: 27 | Bilirubin >10% increase from Baseline, % of subjects [2]: (16.7%) | Bilirubin >10% increase from Baseline, n subjects [2]: 7 | Bilirubin Within 10% of Baseline, % of subjects [2]: (19.0%) | Bilirubin Within 10% of Baseline, n subjects [2]: 8 | ALT >10% decrease from Baseline, % of subjects (Week 2, 0.05 mg/kg/d, m=40): (57.5%) | ALT >10% decrease from Baseline, n subjects (Week 2, 0.05 mg/kg/d, m=40): 23 | ALT >10% increase from Baseline, % of subjects (Week 2, 0.05 mg/kg/d, m=40): (17.5%) | ALT >10% increase from Baseline, n subjects (Week 2, 0.05 mg/kg/d, m=40): 7 | ALT Within 10% of Baseline, % of subjects (Week 2, 0.05 mg/kg/d, m=40): (25.0%) | ALT Within 10% of Baseline, n subjects (Week 2, 0.05 mg/kg/d, m=40): 10 | AST >10% decrease from Baseline, % of subjects (Week 2, 0.05 mg/kg/d, m=40): (50.0%) | AST >10% decrease from Baseline, n subjects (Week 2, 0.05 mg/kg/d, m=40): 20 | AST >10% increase from Baseline, % of subjects (Week 2, 0.05 mg/kg/d, m=40): (12.5%) | AST >10% increase from Baseline, n subjects (Week 2, 0.05 mg/kg/d, m=40): 5 | AST Within 10% of Baseline, % of subjects (Week 2, 0.05 mg/kg/d, m=40): (37.5%) | AST Within 10% of Baseline, n subjects (Week 2, 0.05 mg/kg/d, m=40): 15 | Albumin >10% decrease from Baseline, % of subjects (Week 2, 0.05 mg/kg/d, m=40): (7.5%) | Albumin >10% decrease from Baseline, n subjects (Week 2, 0.05 mg/kg/d, m=40): 3 | Albumin >10% increase from Baseline, n subjects (Week 2, 0.05 mg/kg/d, m=40): 0 | Albumin Within 10% of Baseline, % of subjects (Week 2, 0.05 mg/kg/d, m=40): (92.5%) | Albumin Within 10% of Baseline, n subjects (Week 2, 0.05 mg/kg/d, m=40): 37 | Alkaline Phosphatase >10% decrease from Baseline, % of subjects (Week 2, 0.05 mg/kg/d, m=40): (37.5%) | Alkaline Phosphatase >10% decrease from Baseline, n subjects (Week 2, 0.05 mg/kg/d, m=40): 15 | Alkaline Phosphatase >10% increase from Baseline, % of subjects (Week 2, 0.05 mg/kg/d, m=40): (15.0%) | Alkaline Phosphatase >10% increase from Baseline, n subjects (Week 2, 0.05 mg/kg/d, m=40): 6 | Alkaline Phosphatase Within 10% of Baseline, % of subjects (Week 2, 0.05 mg/kg/d, m=40): (47.5%) | Alkaline Phosphatase Within 10% of Baseline, n subjects (Week 2, 0.05 mg/kg/d, m=40): 19 | Bilirubin >10% decrease from Baseline, % of subjects (Week 2, 0.05 mg/kg/d, m=40): (70.0%) | Bilirubin >10% decrease from Baseline, n subjects (Week 2, 0.05 mg/kg/d, m=40): 28 | Bilirubin >10% increase from Baseline, % of subjects (Week 2, 0.05 mg/kg/d, m=40): (17.5%) | Bilirubin >10% increase from Baseline, n subjects (Week 2, 0.05 mg/kg/d, m=40): 7 | Bilirubin Within 10% of Baseline, % of subjects (Week 2, 0.05 mg/kg/d, m=40): (12.5%) | Bilirubin Within 10% of Baseline, n subjects (Week 2, 0.05 mg/kg/d, m=40): 5 | ALKALINE PHOSPHATASE Change from Baseline, Median (Week 2, 0.05 mg/kg/d, n=40): −8 U/L | ALT Change from Baseline, Mean (Week 2, 0.05 mg/kg/d, n=40): −8.9 U/L | ALT Change from Baseline, Median (Week 2, 0.05 mg/kg/d, n=40): −5.5 U/L | ALT Observed Value, Mean (Week 2, 0.05 mg/kg/d, n=40): 35.2 U/L | ALT Observed Value, Median (Week 2, 0.05 mg/kg/d, n=40): 27.5 U/L | AST Change from Baseline, Mean (Week 2, 0.05 mg/kg/d, n=40): −3.6, U/L | AST Change from Baseline, Median (Week 2, 0.05 mg/kg/d, n=40): −3 U/L | AST Observed Value, Mean (Week 2, 0.05 mg/kg/d, n=40): 29.0 U/L | AST Observed Value, Median (Week 2, 0.05 mg/kg/d, n=40): 24.5 U/L | Albumin Change from Baseline, Mean (Week 2, 0.05 mg/kg/d, n=40): -0.9 g/L | Albumin Change from Baseline, Median (Week 2, 0.05 mg/kg/d, n=40): -1 g/L | Albumin Observed Value, Mean (Week 2, 0.05 mg/kg/d, n=40): 41.5 g/L | Albumin Observed Value, Median (Week 2, 0.05 mg/kg/d, n=40): 42 g/L | Alkaline Phosphatase Change from Baseline, Mean (Week 2, 0.05 mg/kg/d, n=40): −12.5 U/L | Alkaline Phosphatase Observed Value, Mean (Week 2, 0.05 mg/kg/d, n=40): 123.7 U/L | Alkaline Phosphatase Observed Value, Median (Week 2, 0.05 mg/kg/d, n=40): 104 U/L | Bilirubin Change from Baseline, Mean (Week 2, 0.05 mg/kg/d, n=40): -2.12 µmol/L | Bilirubin Change from Baseline, Median (Week 2, 0.05 mg/kg/d, n=40): -1.85 µmol/L | Bilirubin Observed Value, Mean (Week 2, 0.05 mg/kg/d, n=40): 10.29 µmol/L | Bilirubin Observed Value, Median (Week 2, 0.05 mg/kg/d, n=40): 7.65 µmol/L | Gamma Glutamyl Transferase Change from Baseline, Mean (Week 2, 0.05 mg/kg/d, n=40): 7.4 U/L
